Assays:
sedge, umbrella = assay: Test C flooded paddy test; assay type: in vivo, Cyperus difformis; details: Flood
Procedure, shortened: (§1)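 Visual injury scored against controls after 13 to 15 days in the greenhouse, using 0 (no effect) to 100 (complete control). Test compounds went straight into paddy water held 3 cm above the soil surface on 2-leaf-stage plants, with that flood depth maintained for the whole test.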

ducksalad = assay: Test C flooded paddy test; assay type: in vivo, Heteranthera limosa; details: Flood
Procedure, shortened: as §1

wheat = assay: Test A pre-/postemergence herbicide test; assay type: in vivo, Triticum aestivum; details: Postemergence
Procedure, shortened: (§2)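 Formulated compound (non-phytotoxic solvent, surfactant) sprayed pre- onto soil of seeded loam/sand pots or post- onto seedlings at 1–2 leaves; ~10 d greenhouse; 0–100 visual control rating versus untreated.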

barnyardgrass [1] = assay: Test A pre-/postemergence herbicide test; assay type: in vivo, Echinochloa crus-galli
Procedure, shortened: as §2

rice = assay: Test C flooded paddy test; assay type: in vivo, Oryza sativa; details: Flood
Procedure, shortened: as §1

galium = assay: Test A postemergence herbicide test; assay type: in vivo, Galium aparine
Procedure, shortened: (§3)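 Young potted plants in a loam–sand mix, one- to two-leaf stage and 2–10 cm tall, receive the test chemical postemergence and stay in a greenhouse for approximately 10 days. Injury is then judged by eye against untreated plants, scored 0 (none) to 100 (complete control).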

giant foxtail = assay: Test A pre-/postemergence herbicide test; assay type: in vivo, Setaria faberii
Procedure, shortened: as §2

blackgrass = assay: Test A postemergence herbicide test; assay type: in vivo, Alopecurus myosuroides
Procedure, shortened: as §3

kochia = assay: Test A pre-/postemergence herbicide test; assay type: in vivo, Kochia scoparia
Procedure, shortened: as §2

pigweed = assay: Test A pre-/postemergence herbicide test; assay type: in vivo, Amaranthus retroflexus
Procedure, shortened: as §2

ryegrass, Italian = assay: Test A pre-/postemergence herbicide test; assay type: in vivo, Lolium multiflorum
Procedure, shortened: as §2

corn = assay: Test A pre-/postemergence herbicide test; assay type: in vivo, Zea mays; details: Postemergence
Procedure, shortened: as §2

ragweed = assay: Test A pre-/postemergence herbicide test; assay type: in vivo, Ambrosia elatior
Procedure, shortened: as §2

barnyardgrass [2] = assay: Test C flooded paddy test; assay type: in vivo, Echinochloa crus-galli; details: Flood
Procedure, shortened: as §1

morningglory = assay: Test A pre-/postemergence herbicide test; assay type: in vivo, Ipomoea spp.; details: Postemergence, 125 g ai/ha; visual rating on 0 to 100 scale (0 no effect, 100 complete control), approx. 10 days
Procedure, shortened: as §2

[3] = 125 g ai/ha, scale of 0 to 100 where 0 is no effect and 100 is complete control, 13 to 15 days
[4] = 250 g ai/ha, scale of 0 to 100 where 0 is no effect and 100 is complete control, 13 to 15 days
[5] = 125 g ai/ha, 0 to 100 scale, 0 is no effect, 100 is complete control
[6] = 125 g ai/ha, visual rating, 0 to 100 scale, 0 no effect, 100 complete control, approximately 10 days, preemergence
[7] = Postemergence, 125 g ai/ha, 0 to 100 scale, 0 is no effect, 100 is complete control
[8] = preemergence, 500 g ai/ha, 0 to 100 scale, 0 is no effect and 100 is complete control
[9] = 500 g ai/ha, 0 to 100 scale (0 no effect, 100 complete control)
[10] = Postemergence, 500 g ai/ha, 0 to 100 scale (0 no effect, 100 complete control)
[11] = Preemergence, 125 g ai/ha, 0 to 100 scale where 0 is no effect and 100 is complete control

O=C1NCC(c2cccc(C(F)F)c2)C1C(=O)Nc1ccccc1C(F)(F)F (racemic) [Compound 212]
40: Plant response rating, Blackgrass (blackgrass; [5]) | Plant response rating, Barnyardgrass (barnyardgrass [2]; 500 g ai/ha, scale 0 to 100)
90: Barnyardgrass plant response rating (0 to 100 scale, 0 is no effect, 100 is complete control) (barnyardgrass [1]; Postemergence, 500 g ai/ha) | Plant response rating, Barnyardgrass (barnyardgrass [1]; [8]) | Foxtail, Giant plant response rating (0 to 100 scale, 0 is no effect, 100 is complete control) (giant foxtail; Postemergence, 500 g ai/ha) | Plant response rating, Foxtail, Giant (giant foxtail; [8])
15: Plant response rating, Barnyardgrass (barnyardgrass [2]; [4])
60: Plant response rating, Barnyardgrass (barnyardgrass [1]; [6]) | Plant response rating, Barnyardgrass (barnyardgrass [1]; [7]) | Galium plant response rating (0 to 100 scale, 0 is no effect, 100 is complete control) (galium; 500 g ai/ha) | Plant response rating, Foxtail, Giant (giant foxtail; [7]) | Blackgrass plant response rating (0 to 100 scale, 0 is no effect, 100 is complete control) (blackgrass; 500 g ai/ha)
20: Kochia plant response rating (0 to 100 scale, 0 is no effect, 100 is complete control) (kochia; Postemergence, 500 g ai/ha) | Plant response rating, Kochia (kochia; [8]) | Ragweed plant response rating (0 to 100 scale, 0 is no effect, 100 is complete control) (ragweed; Postemergence, 500 g ai/ha)
65: Plant response rating, Barnyardgrass (barnyardgrass [2]; 1000 g ai/ha, scale 0 to 100)
70: Plant response rating, Ducksalad (ducksalad; [4]) | Wheat plant response rating (0 to 100 scale, 0 is no effect, 100 is complete control) (wheat; 500 g ai/ha) | Plant response rating, Foxtail, Giant (giant foxtail; [6])
50: Plant response rating, Galium (galium; [5]) | Corn plant response rating (0 to 100 scale, 0 is no effect, 100 is complete control) (corn; 500 g ai/ha) | Plant response rating, Ragweed (ragweed; [8])
0: Plant response rating, Sedge, Umbrella (sedge, umbrella; [3]) | Plant response rating, Sedge, Umbrella (sedge, umbrella; [4]) | Plant response rating, Sedge, Umbrella (sedge, umbrella; 500 g ai/ha, scale 0 to 100) | Plant response rating, Sedge, Umbrella (sedge, umbrella; 1000 g ai/ha, scale 0 to 100) | Plant response rating, Ducksalad (ducksalad; [3]) | Plant response rating, Wheat (wheat; [5]) | Plant response rating, Rice (rice; [3]) | Plant response rating, Rice (rice; [4]) | Plant response rating, Rice (rice; 500 g ai/ha, scale 0 to 100) | Plant response rating, Rice (rice; 1000 g ai/ha, scale 0 to 100) | Plant response rating, Kochia (kochia; [6]) | Plant response rating, Kochia (kochia; [7]) | Plant response rating, Pigweed (pigweed; [6]) | Plant response rating, Pigweed (pigweed; [7]) | Pigweed plant response rating (0 to 100 scale, 0 is no effect, 100 is complete control) (pigweed; Postemergence, 500 g ai/ha) | Plant response rating, Pigweed (pigweed; [8]) | Plant response rating, Ryegrass, Italian (ryegrass, Italian; [6]) | Plant response rating, Ryegrass, Italian (ryegrass, Italian; [7]) | Ryegrass, Italian plant response rating (0 to 100 scale, 0 is no effect, 100 is complete control) (ryegrass, Italian; Postemergence, 500 g ai/ha) | Plant response rating, Corn (corn; [5]) | Plant response rating, Ragweed (ragweed; [6]) | Plant response rating, Ragweed (ragweed; [7]) | Plant response rating, Barnyardgrass (barnyardgrass [2]; [3])
100: Plant response rating, Ducksalad (ducksalad; 1000 g ai/ha, scale 0 to 100)
75: Plant response rating, Ducksalad (ducksalad; 500 g ai/ha, scale 0 to 100)
30: Plant response rating, Ryegrass, Italian (ryegrass, Italian; [8])

O=C1NC[C@@H](c2cccc(C(F)(F)F)c2)[C@@H]1C(=O)Nc1cccc(F)c1F [Compound 205]
45: Plant response rating, Barnyardgrass (barnyardgrass [2]; 1000 g ai/ha, scale 0 to 100)
40: Wheat plant response rating (0 to 100 scale, 0 is no effect, 100 is complete control) (wheat; 500 g ai/ha) | Plant response rating, Barnyardgrass (barnyardgrass [1]; [7]) | Kochia plant response rating (0 to 100 scale, 0 is no effect, 100 is complete control) (kochia; Postemergence, 500 g ai/ha)
80: Plant response rating, Barnyardgrass (barnyardgrass [1]; [8])
90: Foxtail, Giant plant response rating (0 to 100 scale, 0 is no effect, 100 is complete control) (giant foxtail; Postemergence, 500 g ai/ha) | Plant response rating, Foxtail, Giant (giant foxtail; [8])
50: Plant response rating, Ducksalad (ducksalad; 500 g ai/ha, scale 0 to 100) | Plant response rating, Kochia (kochia; [8])
30: Plant response rating, Barnyardgrass (barnyardgrass [1]; [6]) | Plant response rating, Galium (galium; [5]) | Pigweed plant response rating (0 to 100 scale, 0 is no effect, 100 is complete control) (pigweed; Postemergence, 500 g ai/ha) | Plant response rating, Ragweed (ragweed; [8]) | Plant response rating, Barnyardgrass (barnyardgrass [2]; 500 g ai/ha, scale 0 to 100)
60: Galium plant response rating (0 to 100 scale, 0 is no effect, 100 is complete control) (galium; 500 g ai/ha) | Plant response rating, Foxtail, Giant (giant foxtail; [6])
0: Plant response rating, Sedge, Umbrella (sedge, umbrella; [3]) | Plant response rating, Sedge, Umbrella (sedge, umbrella; [4]) | Plant response rating, Sedge, Umbrella (sedge, umbrella; 500 g ai/ha, scale 0 to 100) | Plant response rating, Sedge, Umbrella (sedge, umbrella; 1000 g ai/ha, scale 0 to 100) | Plant response rating, Ducksalad (ducksalad; [3]) | Plant response rating, Ducksalad (ducksalad; [4]) | Plant response rating, Wheat (wheat; [5]) | Plant response rating, Rice (rice; [3]) | Plant response rating, Rice (rice; [4]) | Plant response rating, Rice (rice; 500 g ai/ha, scale 0 to 100) | Plant response rating, Rice (rice; 1000 g ai/ha, scale 0 to 100) | Plant response rating, Blackgrass (blackgrass; [5]) | Plant response rating, Kochia (kochia; [7]) | Plant response rating, Pigweed (pigweed; [6]) | Plant response rating, Pigweed (pigweed; [7]) | Plant response rating, Ryegrass, Italian (ryegrass, Italian; [6]) | Plant response rating, Ryegrass, Italian (ryegrass, Italian; [7]) | Ryegrass, Italian plant response rating (0 to 100 scale, 0 is no effect, 100 is complete control) (ryegrass, Italian; Postemergence, 500 g ai/ha) | Plant response rating, Corn (corn; [5]) | Corn plant response rating (0 to 100 scale, 0 is no effect, 100 is complete control) (corn; 500 g ai/ha) | Plant response rating, Ragweed (ragweed; [6]) | Plant response rating, Ragweed (ragweed; [7]) | Ragweed plant response rating (0 to 100 scale, 0 is no effect, 100 is complete control) (ragweed; Postemergence, 500 g ai/ha) | Plant response rating, Barnyardgrass (barnyardgrass [2]; [3])
65: Plant response rating, Ducksalad (ducksalad; 1000 g ai/ha, scale 0 to 100)
20: Plant response rating, Kochia (kochia; [6]) | Plant response rating, Pigweed (pigweed; [8]) | Plant response rating, Ryegrass, Italian (ryegrass, Italian; [8]) | Plant response rating, Barnyardgrass (barnyardgrass [2]; [4])
70: Barnyardgrass plant response rating (0 to 100 scale, 0 is no effect, 100 is complete control) (barnyardgrass [1]; Postemergence, 500 g ai/ha) | Plant response rating, Foxtail, Giant (giant foxtail; [7]) | Blackgrass plant response rating (0 to 100 scale, 0 is no effect, 100 is complete control) (blackgrass; 500 g ai/ha)

CN1CC(c2ccc(F)cc2)C(C(=O)Nc2ccccc2F)C1=O (centres unmarked) [Compound 270]
80: Plant response rating, Foxtail, Giant (giant foxtail; [11]) | Plant response rating, Kochia (kochia; [8]) | Plant response rating, Barnyardgrass (barnyardgrass [2]; 1000 g ai/ha, scale 0 to 100)
50: Plant response rating, Galium (galium; [9])
75: Plant response rating, Ducksalad (ducksalad; [3])
0: Plant response rating, Sedge, Umbrella (sedge, umbrella; [3]) | Plant response rating, Sedge, Umbrella (sedge, umbrella; [4]) | Plant response rating, Sedge, Umbrella (sedge, umbrella; 500 g ai/ha, scale 0 to 100) | Plant response rating, Sedge, Umbrella (sedge, umbrella; 1000 g ai/ha, scale 0 to 100) | Plant response rating, Wheat (wheat; 125 g ai/ha, visual rating on 0 to 100 scale (0 no effect, 100 complete control), approx. 10 days) | Plant response rating, Rice (rice; [3]) | Plant response rating, Rice (rice; [4]) | Plant response rating, Rice (rice; 500 g ai/ha, scale 0 to 100) | Plant response rating, Rice (rice; 1000 g ai/ha, scale 0 to 100) | Plant response rating, Blackgrass (blackgrass; [5]) | Plant response rating, Kochia (kochia; [7]) | Plant response rating, Kochia (kochia; [11]) | Plant response rating, Pigweed (pigweed; [10]) | Plant response rating, Pigweed (pigweed; [11]) | Plant response rating, Morningglory (morningglory) | Plant response rating, Ryegrass, Italian (ryegrass, Italian; [11]) | Plant response rating, Ryegrass, Italian (ryegrass, Italian; [8]) | Plant response rating, Corn (corn; [5]) | Plant response rating, Ragweed (ragweed; [10]) | Plant response rating, Ragweed (ragweed; [11])
20: Plant response rating, Wheat (wheat; [9]) | Plant response rating, Galium (galium; [5]) | Plant response rating, Blackgrass (blackgrass; [9]) | Plant response rating, Pigweed (pigweed; [8]) | Plant response rating, Ryegrass, Italian (ryegrass, Italian; [10]) | Plant response rating, Ragweed (ragweed; [8])
90: Plant response rating, Barnyardgrass (barnyardgrass [1]; [7]) | Plant response rating, Barnyardgrass (barnyardgrass [1]; [10]) | Plant response rating, Barnyardgrass (barnyardgrass [1]; [8]) | Plant response rating, Foxtail, Giant (giant foxtail; [10]) | Plant response rating, Foxtail, Giant (giant foxtail; [8])
30: Plant response rating, Kochia (kochia; [10]) | Plant response rating, Corn (corn; [9]) | Plant response rating, Barnyardgrass (barnyardgrass [2]; [4])
10: Plant response rating, Barnyardgrass (barnyardgrass [2]; [3])
100: Plant response rating, Ducksalad (ducksalad; 500 g ai/ha, scale 0 to 100) | Plant response rating, Ducksalad (ducksalad; 1000 g ai/ha, scale 0 to 100)
40: Plant response rating, Pigweed (pigweed; Postemergence, 125 g ai/ha, visual rating on 0 to 100 scale (0 no effect, 100 complete control), approx. 10 days)
85: Plant response rating, Ducksalad (ducksalad; [4])
60: Plant response rating, Barnyardgrass (barnyardgrass [1]; [11]) | Plant response rating, Foxtail, Giant (giant foxtail; [7]) | Plant response rating, Barnyardgrass (barnyardgrass [2]; 500 g ai/ha, scale 0 to 100)

From patent US10294202B2, “Pyrrolidinones as herbicides” (FMC Corporation, priority 2013, dated 2019)
